Measurements: publication PMC11083565, “Computational Design of Novel Cyclic Peptides Endowed with Autophagy-Inhibiting Activity on Cancer Cell Lines” (International Journal of Molecular Sciences, 2024)
Like-named read-outs stand apart in the source and are kept apart here. Where a SMILES comes first, the peptide text is derived from it. Bridges are numbered along the chain shown (N, C = ends). Where no end group is shown, it is not given here. [ ]: non-standard residue; d: D form. The star is where a group is joined. d(pT) = C[C@H](OP(=O)(O)O)[C@@H](N)C(=O)O; pY = N[C@@H](Cc1ccc(OP(=O)(O)O)cc1)C(=O)O; OBn = c1ccc(CO*)cc1; Bn = c1ccc(C*)cc1

Assays:
A549 cells = conditions: 96 h, 5 µM
[1] = tested on: LC3-I and LC3-II expression in PC3 cells; assay: Western blot of LC3-I / LC3-II in PC3 cells; format: cell-based, human
DU145 cells = format: cell-based, human
[2] = target: human recombinant His-tagged LC3B protein (Homo sapiens, UniProt Q9GZQ8); format: binding
MCF-7 cells = conditions: 96 h, 5 µM
[3] = tested on: SQSTM1/p62 expression in PC3 cells; format: cell-based, human
bladder cancer = tested on: bladder cancer; design: method as in PMID 31574376; conditions: combination with autophagy inhibitors; ref [27]; cited from earlier work

Molecule: CC(=O)N[C@@H](CC(=O)O)C(=O)N[C@@H](CCC(=O)OCc1ccccc1)C(=O)N[C@@H](C(=O)N[C@@H](CCC(=O)O)C(=O)N[C@H](Cc1ccccc1)C(=O)N[C@@H](C(=O)N[C@@H](Cc1ccc(OP(=O)(O)O)cc1)C(=O)N[C@@H](CC(C)C)C(=O)N[C@@H](CCC(=O)O)C(=O)N[C@@H]1CSSC[C@H](C(N)=O)NC(=O)[C@H](CC(=O)O)NC1=O)[C@H](C)OP(=O)(O)O)[C@H](C)OCc1ccccc1 [Pep6] (Ac-DE(OBn)[dT](Bn)E[dF][d(pT)][pY]LE[dC]D[dC]-NH2; disulfide 10-12)
- cell viability A549 (A549 cells): 76.7%
- duration of antitumoral effect (PC3 cells): more stable over time than Pep3
- effect on PC3 cell viability (PC3 cells): reduction in cell viability
- relative efficacy on PC3 cell viability (PC3 cells): greater efficacy of Pep6 compared to LIR2-RavZ at all doses used
- LC3-I and LC3-II expression [1]: significantly reduced
- LC3-II/LC3-I ratio [1]: without changing the LC3-II/LC-I ratio
- LC3-II/LC3-I ratio with trehalose [1]: able to decrease the LC3-II/LC3- ratio compared to trehalose alone
- effect on DU145 cell viability (DU145 cells): ineffective
- Kd compared with LIR2-RavZ [2]: about three times lower
- cell viability MCF-7 (MCF-7 cells): 80.7%
- effect on PNT2 cells (PNT2 cells): ineffective
- p62 expression [3]: significantly increased

Molecule: Cn1cnc(N)c2ncnc1-2 [Pep 3-MA, 3-methyladenine, reference compound]
- LC3-I and LC3-II expression ([1]; PC3, 3-MA 1 mM, compared with Pep3 effect): The same effect on LC3-I and LC3-II expression

Molecule: CNC(=O)c1ccc(N2C(=S)N(c3ccc(C#N)c(C(F)(F)F)c3)C(=O)C2(C)C)cc1F [enzalutamide]
- apoptosis of bladder cancer (bladder cancer): effectively induced bladder cancer apoptosis in vitro and in vivo

Molecule: DIDEFDLLEGDE [LIR2-RavZ, reference compound]
- cell viability A549 (A549 cells): 81.1%
- cell viability MCF-7 (MCF-7 cells): 85.4%
